Residues, ends and D or L forms follow the SMILES beside them.
Point of comparison: `CC(C)C[C@H](NC(=O)[C@H](C)NC(=O)Cc1cc(F)cc(F)c1)C(=O)OC(C)(C)C` [Example 40, N-[N-(3,5-Difluorophenylacetyl)-L-alaninyl]-L-leucine tert-Butyl Ester], melting point 128 °C. Against it:
- NC(C(=O)NC(=O)C(NC(=O)Cc1cc(F)cc(F)c1)c1ccccc1)c1ccccc1 (mixture of isomers) [Example 248, N-[N-(3,5-Difluorophenylacetyl)-D,L-phenylglycinyl]-D,L-phenylglycinamide] — higher, 285.5 to 288.5 °C
- CC(C)C(NC(=O)Cc1cc(F)cc(F)c1)C(=O)NC(=O)C(N)c1ccccc1 (mixture of isomers) [Example 249, N-[N-(3,5-Difluorophenylacetyl)-D,L-valinyl]-D,L-phenylglycinamide] — higher, 260.3 to 264.3 °C
- CCCC[C@H](NC(=O)[C@H](C)NC(=O)Cc1cc(F)cc(F)c1)C(=O)OC [Example 1, Methyl N-[N-(3,5-Difluorophenylacetyl)-L-alaninyl]-(S)-2-aminohexanoate] — higher, 142 to 143 °C
- COC(=O)[C@H](Cc1c[nH]cn1)NC(=O)[C@H](C)NC(=O)Cc1cc(F)cc(F)c1 [Example 2, N-[N-(3,5-Difluorophenylacetyl)-L-alaninyl]-L-histidine Methyl Ester] — higher, 195 to 197 °C
- C=CCCC(=O)N[C@@H](C)C(=O)N[C@@H](Cc1ccccc1)C(=O)OC [Example 11, N-[N-(Pent-4-enoyl)-L-alaninyl]-L-phenylalanine Methyl Ester] — lower, 125.5 to 126.5 °C
- CCCCCC=CCCC(=O)N[C@@H](C)C(=O)N[C@@H](Cc1ccccc1)C(=O)OC [Example 12, N-[N-(Dec-4-enoyl)-L-alaninyl]-L-phenylalanine Methyl Ester] — lower, 115.5 to 117.5 °C
- COC(=O)[C@H](Cc1ccc(OCCCN(C)C)cc1)NC(=O)[C@H](C)NC(=O)Cc1cc(F)cc(F)c1 [Example 13, N-[N-(3,5-Difluorophenylacetyl)-L-alaninyl]-L-4-[3-(N,N-dimethylamino)propoxy]phenylalanine Methyl Ester] — higher, 153 to 155 °C
- COC(=O)[C@H](Cc1ccc(OCC(=O)OC(C)(C)C)cc1)NC(=O)[C@H](C)NC(=O)Cc1cc(F)cc(F)c1 [Example 14, N-[N-(3,5-Difluorophenylacetyl)-L-alaninyl]-L-4-[(tert-butyloxycarbonyl)methoxy]phenylalanine Methyl Ester] — lower, 116 to 119 °C
- COC(=O)[C@H](Cc1ccc(O)cc1)NC(=O)[C@H](C)NC(=O)Cc1cc(F)cc(F)c1 [Example 15, N-[N-(3,5-Difluorophenylacetyl)-L-alaninyl]-L-tyrosine Methyl Ester] — lower, 85 to 88 °C
- COC(=O)[C@H](CCCCN(C)C)NC(=O)[C@H](C)NC(=O)Cc1cc(F)cc(F)c1 [Example 18, Methyl N-[N-(3,5-Difluorophenylacetyl)-L-alaninyl]-(S)-2-amino-6-(N,N-dimethylamino)hexanoate] — lower, 123 to 126 °C
- COC(=O)[C@H](Cc1cccnc1)NC(=O)[C@H](C)NC(=O)Cc1cc(F)cc(F)c1 [Example 20, Methyl N-[N-(3,5-Difluorophenylacetyl)-L-alaninyl]-(S)-2-amino-3-(3-pyridyl)propionate] — lower, 101 to 103 °C
- COCC(NC(=O)[C@H](C)NC(=O)Cc1cc(F)cc(F)c1)C(=O)OC (stereo partly drawn) [Example 24, Methyl N-[N-(3,5-Difluorophenylacetyl)-L-alaninyl]-2-amino-3-methoxypropionate] — higher, 165 to 168 °C
- COC(=O)CNC(=O)[C@H](C)NC(=O)Cc1cc(F)cc(F)c1 [Example 28, N-[N-(3,5-Difluorophenylacetyl)-L-alaninyl]glycine Methyl Ester] — higher, 158 to 160 °C
- COC(=O)[C@H](Cc1cscn1)NC(=O)[C@H](C)NC(=O)Cc1cc(F)cc(F)c1 [Example 31, Methyl N-[N-(3,5-Difluorophenylacetyl)-L-alaninyl]-(S)-2-amino-3-(thiazol-4-yl)propionate] — higher, 136 to 139 °C
- COC(=O)C1Cc2ccccc2CN1C(=O)[C@H](C)NC(=O)Cc1cc(F)cc(F)c1 (stereo partly drawn) [Example 32, Methyl 2-[N-(3,5-Difluorophenylacetyl)-L-alaninyl]-1,2,3,4-tetrahydroisoquinoline-3-carboxylate] — lower, 37 to 40 °C
- COC(=O)[C@H](Cc1cccs1)NC(=O)[C@H](C)NC(=O)Cc1cc(F)cc(F)c1 [Example 36, Methyl N-[N-(3,5-Difluorophenylacetyl)-L-alaninyl]-(S)-2-amino-3-(2-thienyl)propionate] — higher, 145 to 147 °C
- C[C@H](NC(=O)Cc1cc(F)cc(F)c1)C(=O)N[C@@H](Cc1ccccc1)C(=O)OCc1ccccc1 [Example 37, N-[N-(3,5-Difluorophenylacetyl)-L-alaninyl]-L-phenylalanine Benzyl Ester] — higher, 170 to 171 °C
- C[C@H](NC(=O)Cc1cc(F)cc(F)c1)C(=O)N[C@@H](Cc1ccccc1)C(=O)OCCCBr [Example 38, N-[N-(3,5-Difluorophenylacetyl)-L-alaninyl]-L-phenylalanine 3-Bromopropyl Ester] — higher, 138 to 142 °C
- COC(=O)[C@H](CCc1ccccc1)NC(=O)[C@H](C)NC(=O)Cc1cc(F)cc(F)c1 [Example 44, Methyl N-[N-(3,5-Difluorophenylacetyl)-L-alaninyl]-(S)-2-amino-4-phenylbutanoate] — higher, 147 to 149.5 °C
- C[C@H](NC(=O)Cc1cc(F)cc(F)c1)C(=O)NCC(=O)OCCc1ccccc1 [Example 45, N-[N-(3,5-Difluorophenylacetyl)-L-alaninyl]glycine 2-Phenylethyl Ester] — higher, 154 to 155.2 °C
- C[C@H](NC(=O)Cc1cc(F)cc(F)c1)C(=O)NCC(=O)OCCCc1ccccc1 [Example 46, N-[N-(3,5-Difluorophenylacetyl)-L-alaninyl]glycine 3-Phenylpropyl Ester] — higher, 137 °C
- CCOC(=O)C(NC(=O)[C@H](C)NC(=O)Cc1cc(F)cc(F)c1)c1cccnc1 (stereo partly drawn) [Example 53, Ethyl N-[N-(3,5-Difluorophenylacetyl)-L-alaninyl]-2-amino-2-(3-pyridyl)acetate] — higher, 146 to 157 °C
- COC(=O)C(NC(=O)[C@H](C)NC(=O)Cc1cc(F)cc(F)c1)c1cccc(OC)c1 (stereo partly drawn) [Example 63, Methyl N-[N-(3,5-Difluorophenylacetyl)-L-alaninyl]-2-amino-2-(3-methoxyphenyl)acetate] — higher, 163 to 170 °C
- COC(=O)C(NC(=O)[C@H](C)NC(=O)Cc1cc(F)cc(F)c1)c1ccc(OC)cc1 (stereo partly drawn) [Example 64, Methyl N-[N-(3,5-Difluorophenylacetyl)-L-alaninyl]-2-amino-2-(4-methoxyphenyl)acetate] — higher, 170 to 174 °C
- CCOC(=O)C(NC(=O)[C@H](C)NC(=O)Cc1cc(F)cc(F)c1)c1ccccn1 (stereo partly drawn) [Example 65, Ethyl N-[N-(3,5-Difluorophenylacetyl)-L-alaninyl]-2-amino-2-(2-pyridyl)acetate] — lower, 123 to 125 °C
- CCOC(=O)C(NC(=O)[C@H](C)NC(=O)Cc1cc(F)cc(F)c1)c1ccncc1 (stereo partly drawn) [Example 66, Ethyl N-[N-(3,5-Difluorophenylacetyl)-L-alaninyl]-2-amino-2-(4-pyridyl)acetate] — higher, 175 to 181 °C
- COC(=O)[C@H](Cc1ccccc1)NC(=O)[C@H](C)NC(=O)CC1CCCCC1 [Example 67, N-[N-(Cyclohexylacetyl)-L-alaninyl]-L-phenylalanine Methyl Ester] — higher, 156 to 158 °C
- COC(=O)[C@H](Cc1ccccc1)NC(=O)[C@H](C)NC(=O)CC1CCCC1 [Example 68, N-[N-(Cyclopentylacetyl)-L-alaninyl]-L-phenylalanine Methyl Ester] — higher, 137 to 139 °C
- COC(=O)[C@H](Cc1ccccc1)NC(=O)[C@H](C)NC(=O)CC1=CCCCC1 [Example 69, N-[N-(Cyclohex-1-enylacetyl)-L-alaninyl]-L-phenylalanine Methyl Ester] — higher, 139 to 142 °C
- COC(=O)[C@H](Cc1ccccc1)NC(=O)[C@H](C)NC(=O)CC1CC1 [Example 72, N-[N-(Cyclopropylacetyl)-L-alaninyl]-L-phenylalanine Methyl Ester] — not separable, 128 to 131 °C
- C[C@H](NC(=O)Cc1cc(F)cc(F)c1)C(=O)NCC(=O)OCc1ccccc1 [Example 73, N-[N-(3,5-Difluorophenylacetyl)-L-alaninyl]glycine Benzyl Ester] — higher, 167.5 °C
- CCOC(=O)[C@H](C)NC(=O)[C@@H](NC(=O)CC(C)C)c1ccccc1 [Example 74, N-[N-(Isovaleryl)-L-phenylglycinyl]-L-alanine Ethyl Ester] (HELM PEPTIDE1{[CC(C)CC(=O)[*:2]].[Phg].A.[CCO[*:1]]}$$$$V2.0) — higher, 198 to 201 °C
- COC(=O)[C@H](Cc1ccccc1)NC(=O)[C@H](C)NC(=O)Cc1cccc([N+](=O)[O-])c1 [Example 75, N-[N-(3-Nitrophenylacetyl)-L-alaninyl]-L-phenylalanine Methyl Ester] — higher, 154 to 158 °C
- CCOC(=O)[C@H](C)NC(=O)[C@H](C)NC(=O)Cc1cccc([N+](=O)[O-])c1 [Example 76, N-[N-(3-Nitrophenylacetyl)-L-alaninyl]-L-alanine Ethyl Ester] — higher, 193 to 195 °C
- CCOC(=O)CNC(=O)[C@H](C)NC(=O)Cc1cccc([N+](=O)[O-])c1 [Example 77, N-[N-(3-Nitrophenylacetyl)-L-alaninyl]glycine Ethyl Ester] — higher, 164 to 165 °C
- CC(C)COC(=O)[C@H](C)NC(=O)[C@@H](NC(=O)CC(C)C)c1ccccc1 [Example 79, N-[N-(Isovaleryl)-L-phenylglycinyl]-L-alanine iso-butyl Ester] — higher, 181 to 186 °C
- CCOC(=O)[C@H](Cc1ccc(O)cc1)NC(=O)[C@H](C)NC(=O)Cc1cccc([N+](=O)[O-])c1 [Example 81, N-[N-(3-Nitrophenylacetyl)-L-alaninyl]-L-tyrosine Ethyl Ester] — lower, 117 to 119 °C
- CC[C@H](C)[C@H](NC(=O)CC(C)C)C(=O)N[C@@H](C)C(=O)OCC(C)C [Example 82, N-[N-(Isovaleryl)-L-isoleucinyl]-L-alanine iso-butyl Ester] — higher, 142 to 146 °C

Reference: patent US6476263B1, “Compounds for inhibiting β-amyloid peptide release and/or its synthesis” (Elan Pharmaceuticals, Inc., priority 1996, dated 2002)
